Reference: patent US20130085283A1, “GERANYLGERANYLACETONE DERIVATIVES” (Coyote Pharmaceuticals, Inc., priority 2011, published 2013)
Marks after values point to notes of the source that are not given here.

Tests used:
Neuro2A cells = assay: In vitro neuroprotection: Neuro2A cells cultured with GGA derivative with or without GGTI-298, cells that extended neurites counted; type: cell-based, mouse; conditions: for Activity 1 μM: compound at 1 μM; for Activity 1 μM / Activity 1 nm: cells that extended neurites counted, normalized by the activity of CNS-102 (GGA trans-isomer); for Activity 1 nm: compound at 1 nm (so in the source)
Experimental: Neuro2A cells were cultured with a GGA derivative in the presence or absence of an inhibitor against a G-protein (GGTI-298). After differentiation was induced, cells that extended neurites were counted as an activity of the compound. The activities are shown in arbitrary units and were normalized by the activity of CNS-102 (GGA trans-isomer) in each parallel experiments.

Sprague-Dawley rats = assay: Neurodegeneration induced by Kainic acid in rats (hippocampus CA3 neuron damage, seizure behavior scores); type: in vivo, rat; conditions: oral dosing, Kainic acid injected
Experimental: The compounds and the compositions of this invention are tested in vivo for their ability to alleviate neurodegenerations induced by Kainic acid. See, for example, PCT Pat. App. No. PCT/US2011/050071, supra. A compound or composition of this invention is orally dosed to Sprague-Dawley rats, and Kainic acid is injected. Seizure behaviors are observed and scored (see, e.g., R. J. Racine, Modification of seizure activity by electrical stimulation: II. Motor seizure, Electroencephalogr. Clin. Neurophysiol. 32 (1972) 281-294). Brain tissues of rats are sectioned on histology slides, and neurons in hippocampus tissues are stained by Nissl.
The indicated compounds or vehicle control were orally dosed to Sprague-Dawley rats, and Kainic acid was injected. Seizure behaviors were observed and scored (Ref. R. J. Racine, Modification of seizure activity by electrical stimulation: 11. Motor seizure, Electroencephalogr. Clin. Neurophysiol. 32 (1972) 281-294. Modifications were made for the methods). Brain tissues of rats were sectioned on histology slides, and neurons in hippocampus tissues were stained by Nissl. Neurons damaged by Kainic acid (mean of hippocampus CA3 neurons damaged) and behavior scores (mean of seizure behavior scores) were quantified.

HSP70 [1] = assay: Expression of heat shock proteins in vitro (Western blotting of Neuro2A lysates); type: cell-based; conditions: Mus musculus, N2a, retinoic acid differentiation, GGTI-298, 24 hrs; for fold induction at 0.1 µM: 100 nM, signal in the absence of the compounds normalized as 1, read-out: HSP70 Western signal, Compound Dose 100 nM; for fold induction at 1 µM: signal in the absence of the compounds normalized as 1, read-out: HSP70 Western signal, Compound Dose 1 μM; for fold induction at 10 µM: signal in the absence of the compounds normalized as 1, read-out: HSP70 Western signal, Compound Dose 10 μM
Experimental: Mouse Neuro2A neuroblastoma cells were cultured in DMEM supplemented with 10% FBS for 24 hrs. The cells were treated with various concentrations of the indicated compounds. Then differentiation was induced by retinoic acid in DMEM supplemented with 2% FBS. An inhibitor against a G-protein, GGTI-298, was incubated. After 24 hrs incubation, cells were harvested, and lysates were prepared from the harvested cells. Western blotting analysis was done for the same protein amounts of these lysates, and western signals were detected by chemiluminescence and quantified in parallel with comparisons of those detected in the absence of the compound. Western signals in the absence of the compounds were normalized as 1.

HSP70 [2] = assay: HSP70 protein in rat brain lysates by Western blotting after oral dosing; type: in vivo
Experimental: The compounds tabulated below or vehicle controls were orally dosed at 12 mg/kg to Sprague-Dawley rats. Rat brain tissues were extracted in various time points after the oral dosing. Lysates were prepared from the harvested brain tissues. Western blotting analysis was done for the same protein amounts of these lysates, and western signals of HSP70 were detected by chemiluminescence and quantified in parallel with comparisons of those detected at time 0 hr. Western signals at time 0 hr were normalized as 100.

CCOC(=O)C(C/C=C(\C)CC/C=C(\C)CCC=C(C)C)C(C)=O (stereo not shown)
Activity 1 μM (Neuro2A cells): 259* arbitrary units

CCC(=O)CC/C=C(\C)CC/C=C(\C)CC/C=C(\C)CCC=C(C)C
Activity 1 nm (Neuro2A cells): 186 arbitrary units

CCOC(=O)C(C/C=C(\C)CC/C=C(\C)CC/C=C(\C)CCC=C(C)C)C(=O)C12CC3CC(CC(C3)C1)C2 (stereo not shown)
Activity 1 nm (Neuro2A cells): 145 arbitrary units

CCOC(=O)C(C/C=C(\C)CC/C=C(\C)CC/C=C(\C)CCC=C(C)C)C(=O)C(C)C (stereo not shown)
Activity 1 nm (Neuro2A cells): 173 arbitrary units

CCOC(=O)C(CC=C1CCCCC1)C(C)=O (stereo not shown)
Activity 1 μM (Neuro2A cells): 162* arbitrary units

CCOC(=O)/C=C(\C)CCC=C1CCCCC1
Activity 1 μM (Neuro2A cells): 161* arbitrary units

C/C(=C\CO)CCC=C1CCCCC1
Activity compared with control experiment with no addition of compound (Neuro2A cells; in words, concentration not given): * Under the conditions tested, this compound was not found to have activity beyond that of the control for this assay.

CCOC(=O)C=C1CCCCC1
Activity 1 μM (Neuro2A cells): 240* arbitrary units

CC(C)=CCC/C(C)=C/CC/C(C)=C/CC/C(C)=C/CC/C(C)=N/OCc1ccccc1
Activity 1 μM (Neuro2A cells): 287 arbitrary units

CCO/N=C(\C)CC/C=C(\C)CC/C=C(\C)CC/C=C(\C)CCC=C(C)C
Mean of Hippocampus CA3 neurons damaged (Sprague-Dawley rats; Vehicle 17.59 in this table): 14.66 Arbitrary units

CC(C)=CCC/C(C)=C/CC/C(C)=C/CC/C(C)=C/CC/C(C)=C/CCC(=O)C1CC1
Mean of Hippocampus CA3 neurons damaged (Sprague-Dawley rats; Vehicle 6.59 in this table): 5.98 Arbitrary units

CC(C)=CCC/C(C)=C/CC/C(C)=C/CC/C(C)=C/C=O
Mean of Hippocampus CA3 neurons damaged (Sprague-Dawley rats; Vehicle 1.72 in this table): 1.58 Arbitrary units

CC(C)=CCC/C(C)=C/CC/C(C)=C/CC/C(C)=C/CC/C(C)=N/OCC(=O)O
Mean of Seizure behaviors scores (Sprague-Dawley rats; Vehicle 26.68 in this table): 13.37 Arbitrary units

CC(C)=CCC/C(C)=C/CC/C(C)=C/CCC(C)OC(=O)NCC1CCCCC1 (stereo not shown)
fold induction at 0.1 µM (HSP70 [1]): 1.55
fold induction at 1 µM (HSP70 [1]): 1.49
fold induction at 10 µM (HSP70 [1]): 2.53

CCC(=O)CC/C=C(\CC)CC/C=C(\C)CC/C=C(\C)CCC=C(C)C
fold induction at 0.1 µM (HSP70 [1]): 1.79
fold induction at 1 µM (HSP70 [1]): 6.08
fold induction at 10 µM (HSP70 [1]): 4.76

CC(C)=CCC/C(C)=C/CC/C(C)=C/CC/C(C)=C/CC1CCCCC1=O (stereo not shown) [drawing 150]
Mean of Hippocampus CA3 neurons damaged (Sprague-Dawley rats; Vehicle 15.61 in this table): 2.64 Arbitrary units

CC(=O)CC/C=C(\C)CC/C=C(\C)CC/C=C(\C)CCC=C(C)C [drawing 151]
Mean of Hippocampus CA3 neurons damaged (Sprague-Dawley rats; Vehicle 15.61 in this table): 9.46 Arbitrary units

CC(C)=CCC/C(C)=C/CC/C(C)=C/CC/C(C)=C/CCC1(C)OCCO1 [drawing 152]
Mean of Hippocampus CA3 neurons damaged (Sprague-Dawley rats; Vehicle 15.31 in this table): 12.11 Arbitrary units

CCOC(=O)C(C/C=C(\C)CC/C=C(\C)CC/C=C(\C)CCC=C(C)C)C(C)=O (stereo not shown) [drawing 153]
Mean of Hippocampus CA3 neurons damaged (Sprague-Dawley rats; Vehicle ~7.74 in this table): ~5.57 Arbitrary units

CC(=O)CC/C=C(\C)CC/C=C(\C)CCC=C(C)C [drawing 154]
Mean of Hippocampus CA3 neurons damaged (Sprague-Dawley rats; Vehicle 19.95 in this table): 10.61 Arbitrary units

CC/C(=C\CCC(=O)C12CC3CC(CC(C3)C1)C2)CC/C=C(\C)CC/C=C(\C)CCC=C(C)C [drawing 155]
Mean of Hippocampus CA3 neurons damaged (Sprague-Dawley rats; Vehicle 19.95 in this table): 12.54 Arbitrary units

COC(=O)C(NC(=O)OC(C)CC/C=C(\C)CC/C=C(\C)CCC=C(C)C)C(C)C (stereo not shown) [drawing 156]
Mean of Hippocampus CA3 neurons damaged (Sprague-Dawley rats; Vehicle 9.76 in this table): 6.61 Arbitrary units

CC(=O)CC/C=C(\C)CC/C=C(\C)CC/C=C(\C)CC/C=C(\C)CCC=C(C)C [drawing 158]
Mean of Hippocampus CA3 neurons damaged (Sprague-Dawley rats; Vehicle 12.71 in this table): 2.22 Arbitrary units

CC(C)=CCC/C(C)=C/CC/C(C)=C/CC/C(C)=C/COC(=O)C1CCCCC1 [drawing 159]
Mean of Hippocampus CA3 neurons damaged (Sprague-Dawley rats; Vehicle 6.59 in this table): 1.55 Arbitrary units

CC(C)=CCC/C(C)=C/CC/C(C)=C/CC/C(C)=C/CCC(=O)C(C)(C)C [drawing 161]
Mean of Hippocampus CA3 neurons damaged (Sprague-Dawley rats; Vehicle 12.91 in this table): 8.08 Arbitrary units

CCCCCNC(=O)OC(C)CC/C=C(\C)CC/C=C(\C)CCC=C(C)C (stereo not shown) [drawing 162]
Mean of Hippocampus CA3 neurons damaged (Sprague-Dawley rats; Vehicle 7.09 in this table): 14.73 Arbitrary units

CC(C)=CCC/C(C)=C/CC/C(C)=C/CC/C(C)=C/CCC1(C)OCCO1 [drawing 165]
Mean of Seizure behaviors scores (Sprague-Dawley rats; Vehicle 41.56 in this table): 16.35 Arbitrary units

CC(C)=CCC/C(C)=C/CC/C(C)=C/CC/C(C)=C/CCC(=O)C(C)(C)C [drawing 166]
Mean of Seizure behaviors scores (Sprague-Dawley rats; Vehicle 19.75 in this table): 11.25 Arbitrary units

CC(C)=CCC/C(C)=C/CC/C(C)=C/CC/C(C)=C/COC(=O)C1CCCCC1 [drawing 167]
Mean of Seizure behaviors scores (Sprague-Dawley rats; Vehicle 26.31 in this table): 18.68 Arbitrary units

CCOC(=O)C(C/C=C(\C)CC/C=C(\C)CC/C=C(\C)CCC=C(C)C)C(C)=O (stereo not shown) [drawing 168]
Mean of Seizure behaviors scores (Sprague-Dawley rats; Vehicle 13.37 in this table): 3.83 Arbitrary units

CC(C)=CCC/C(C)=C/CC/C(C)=C/CC/C(C)=C/COC(=O)C1CCCCC1 [drawing 169]
fold induction at 0.1 µM (HSP70 [1]): 2.53
fold induction at 1 µM (HSP70 [1]): 2.34
fold induction at 10 µM (HSP70 [1]): 2.53

CCCCCNC(=O)OC(C)CC/C=C(\C)CC/C=C(\C)CCC=C(C)C (stereo not shown) [drawing 170]
fold induction at 0.1 µM (HSP70 [1]): 1.16
fold induction at 1 µM (HSP70 [1]): 1.26
fold induction at 10 µM (HSP70 [1]): 1.93

CC(=O)CC/C=C(\C)CC/C=C(\C)CC/C=C(\C)CC/C=C(\C)CCC=C(C)C [drawing 171]
fold induction at 0.1 µM (HSP70 [1]): 1.92
fold induction at 1 µM (HSP70 [1]): 2.78
fold induction at 10 µM (HSP70 [1]): 3.53

CC(C)=CCC/C(C)=C/CC/C(C)=C/CC/C(C)=C/CCC1(C)OCCO1 [drawing 172]
fold induction at 0.1 µM (HSP70 [1]): 3.16
fold induction at 1 µM (HSP70 [1]): 3.5
fold induction at 10 µM (HSP70 [1]): 3.49

CC(C)=CCC/C(C)=C/CC/C(C)=C/CC/C(C)=C/CC1CCCCC1=O (stereo not shown) [drawing 173]
fold induction at 0.1 µM (HSP70 [1]): 3.85
fold induction at 1 µM (HSP70 [1]): 3.78
fold induction at 10 µM (HSP70 [1]): 2.25

CC(=O)CC/C=C(\C)CC/C=C(\C)CCC=C(C)C [drawing 175]
fold induction at 0.1 µM (HSP70 [1]): 1.87
fold induction at 1 µM (HSP70 [1]): 5.86
fold induction at 10 µM (HSP70 [1]): 1.79

CC/C(=C\CCC(=O)C12CC3CC(CC(C3)C1)C2)CC/C=C(\C)CC/C=C(\C)CCC=C(C)C [drawing 177]
fold induction at 0.1 µM (HSP70 [1]): 1.71
fold induction at 1 µM (HSP70 [1]): 2
fold induction at 10 µM (HSP70 [1]): 1

CC(=O)CC/C=C(\C)CC/C=C(\C)CC/C=C(\C)CCC=C(C)C [drawing 178]
fold induction at 0.1 µM (HSP70 [1]): 1.38
fold induction at 1 µM (HSP70 [1]): 2.05
fold induction at 10 µM (HSP70 [1]): 2.14

COC(=O)C(NC(=O)OC(C)CC/C=C(\C)CC/C=C(\C)CCC=C(C)C)C(C)C (stereo not shown) [drawing 179]
fold induction at 0.1 µM (HSP70 [1]): 1.26
fold induction at 1 µM (HSP70 [1]): 1.07
fold induction at 10 µM (HSP70 [1]): 1.29

CC(C)=CCC/C(C)=C/CC/C(C)=C/CC/C(C)=C/CC1CCCCC1=O (stereo not shown) [drawing 180]
Western signal of HSP70 in brain (HSP70 [2]; 12 hr after oral 12 mg/kg, time 0 hr = 100, Vehicle 102%): 116%
Western signal of HSP70 in brain (HSP70 [2]; 48 hr after oral 12 mg/kg, time 0 hr = 100, Vehicle 105%): 114%
Western signal of HSP70 in brain (HSP70 [2]; 96 hr after oral 12 mg/kg, time 0 hr = 100, Vehicle 99%): 97%
